This passage reports IC50 results from US20240374590A1, “COMPOSITIONS AND METHODS FOR TREATING CANCER” (A2A PHARMACEUTICALS, INC., priority 2021, published 2024).

Test [1] deals with HCT-116 human colon carcinoma cell line. Kind of test: Cell viability assay (SRB) in HCT-116. It is filed as cell-based. The note with it: 72 hours after treatment, read-out: HCT116 IC50. The essentials:
(§1)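 JIMT-1 (3×10^3 cells/well) and HCT-116 (4×10^3 cells/well) cells were seeded and treated with inhibitors at several concentrations 24 h later. Viability was read by sulforhodamine B staining 72 h after treatment. JIMT-1 was grown in DMEM and HCT-116 in McCoy's 5A, both with FBS.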

Test [2] concerns JIMT-1 human breast cancer cell line. Kind of test: Cell viability assay (SRB) in JIMT-1. It is filed as cell-based. The following applies: 72 hours after treatment, read-out: JIMT1 IC50. The essentials:
as §1

A value given as a limit tells only on which side of the number the result lay.

Broadly, the IC50 is the concentration that gives 50% inhibition. Regarding `C[C@@H]1CN(c2nccc(Nc3cc(-c4ccc(OC(F)F)cc4)n[nH]3)n2)C[C@@H](C)O1` [Compound 240, N-(3-(4-(difluoromethoxy)phenyl)-1H-pyrazol-5-yl)-2-((2R,6R)-2,6-dimethylmorpholino)pyrimidin-4-amine], the IC50 in test [1] is 1060 nM; in test [2], 103 nM.

With `COc1ccc(-c2cc(Nc3ccnc(N4CCOC(C)C4)n3)[nH]n2)cc1F` (centres unmarked) [Compound 94, N-(3-(3-fluoro-4-methoxyphenyl)-1H-pyrazol-5-yl)-2-(2-methylmorpholino)pyrimidin-4-amine], the values for the IC50 in test [1] and in test [2] were 46 nM and 29 nM, respectively.

As to `COc1ccc(-c2cc(Nc3ccnc(N4CCC4)n3)[nH]n2)c(F)c1` [Compound 153, 2-(azetidin-1-yl)-N-(3-(2-fluoro-4-methoxyphenyl)-1H-pyrazol-5-yl)pyrimidin-4-amine], the IC50 is 10 nM in test [1] and 6 nM in test [2].

On to `COc1ccc(-c2cc(Nc3ccnc(N4CCOCC4)n3)[nH]n2)cc1` [Compound 5, N-(3-(4-methoxyphenyl)-1H-pyrazol-5-yl)-2-morpholinopyrimidin-4-amine], for which the IC50 was 47 nM in test [1] and 5 nM in test [2].

Take `C[C@@H]1CN(c2ncc(Cl)c(Nc3cc(-c4ccc(OC(F)F)cc4)n[nH]3)n2)C[C@H](C)O1` [Compound 288, 5-chloro-N-(3-(4-(difluoromethoxy)phenyl)-1H-pyrazol-5-yl)-2-((2R,6S)-2,6-dimethylmorpholino)pyrimidin-4-amine]: the IC50 came out at 456 nM in test [1] and 443 nM in test [2].

As to `COc1ccc(-c2cc(Nc3ccnc(N4C(C)COCC4C)n3)[nH]n2)c(F)c1` (centres unmarked) [Compound 136, 2-(3,5-dimethylmorpholino)-N-(3-(2-fluoro-4-methoxyphenyl)-1H-pyrazol-5-yl)pyrimidin-4-amine], the values for the IC50 in test [1] and in test [2] were 1300 nM and 895 nM, respectively.

On to `COc1ccc(-c2cc(Nc3ccnc(N4CCC(F)CC4)n3)[nH]n2)c(F)c1` [Compound 131, N-(3-(2-fluoro-4-methoxyphenyl)-1H-pyrazol-5-yl)-2-(4-fluoropiperidin-1-yl)pyrimidin-4-amine], for which the IC50 was determined as 47 nM in test [1] and 53 nM in test [2].

Take `COc1cc(-c2cc(Nc3ccnc(N4C[C@@H](C)O[C@@H](C)C4)n3)[nH]n2)cc(OC)c1OC` [Compound 203, 2-((2R,6S)-2,6-dimethylmorpholino)-N-(3-(3,4,5-trimethoxyphenyl)-1H-pyrazol-5-yl)pyrimidin-4-amine]: the values for the IC50 in test [1] and in test [2] were 2490 nM and 1700 nM, respectively.

For `C[C@@H]1CN(c2nccc(Nc3cc(-c4ccc(OC(F)F)cc4)n[nH]3)n2)C[C@H](C)O1` [Compound 201, N-(3-(4-(difluoromethoxy)phenyl)-1H-pyrazol-5-yl)-2-((2R,6S)-2,6-dimethylmorpholino)pyrimidin-4-amine], the IC50 came out at 91 nM in test [1] and 76 nM in test [2].

With `C[C@@H]1CN(c2nccc(Nc3cc(-c4ccc(OC(F)(F)F)c(Cl)c4)n[nH]3)n2)C[C@H](C)O1` [Compound 192b, N-(3-(3-chloro-4-(trifluoromethoxy)phenyl)-1H-pyrazol-5-yl)-2-((2R,6S)-2,6-dimethylmorpholino)pyrimidin-4-amine], the IC50 in test [1] worked out at 8970 nM; in test [2], 4640 nM.

Take `COc1ccc(-c2cc(Nc3ccnc(N4CC5COCC5C4)n3)[nH]n2)c(F)c1` (centres unmarked) [Compound 140, N-(3-(2-fluoro-4-methoxyphenyl)-1H-pyrazol-5-yl)-2-(tetrahydro-1H-furo[3,4-c]pyrrol-5(3H)-yl)pyrimidin-4-amine]: the IC50 was 457 nM in test [1] and 107 nM in test [2].

Regarding `C[C@@H]1COCCN1c1ncc(F)c(Nc2cc(-c3ccc(OC(F)F)cc3)n[nH]2)n1` [Compound 295, (R)-N-(3-(4-(difluoromethoxy)phenyl)-1H-pyrazol-5-yl)-5-fluoro-2-(3-methylmorpholino)pyrimidin-4-amine], the IC50 in test [1] is 7510 nM; in test [2], not below 10000 nM.

Turning to `COc1ccc(-c2cc(Nc3ccnc(N4CCOC(C)(C)C4)n3)[nH]n2)c(F)c1` [Compound 135, 2-(2,2-dimethylmorpholino)-N-(3-(2-fluoro-4-methoxyphenyl)-1H-pyrazol-5-yl)pyrimidin-4-amine], the figures for the IC50 in test [1] and in test [2] were 880 nM and 230 nM, respectively.

For `COc1ccc(-c2cc(Nc3ccnc(N4CCC(C)(C)CC4)n3)[nH]n2)c(F)c1` [Compound 143, 2-(4,4-dimethylpiperidin-1-yl)-N-(3-(2-fluoro-4-methoxyphenyl)-1H-pyrazol-5-yl)pyrimidin-4-amine], the IC50 came out at 1010 nM in test [1] and 426 nM in test [2].

For `CC1(C)CN(c2nccc(Nc3cc(-c4ccc(OC(F)F)cc4)n[nH]3)n2)C1` [Compound 247, N-(3-(4-(difluoromethoxy)phenyl)-1H-pyrazol-5-yl)-2-(3,3-dimethylazetidin-1-yl)pyrimidin-4-amine], the IC50 was not below 10000 nM in test [1] and 142 nM in test [2].

Turning to `COc1ccc(-c2cc(Nc3ccnc(N4C[C@@H](C)O[C@H](C)C4)n3)[nH]n2)c(F)c1` [Compound 149, 2-((2R,6R)-2,6-dimethylmorpholino)-N-(3-(2-fluoro-4-methoxyphenyl)-1H-pyrazol-5-yl)pyrimidin-4-amine], the half-maximal inhibitory concentration (IC50) in test [1] stood at 115 nM; in test [2], 65 nM.

Take `COc1ccc(-c2cc(Nc3ccnc(N4CCOC(C)C4)n3)[nH]n2)c(F)c1` (centres unmarked) [Compound 137, N-(3-(2-fluoro-4-methoxyphenyl)-1H-pyrazol-5-yl)-2-(2-methylmorpholino)pyrimidin-4-amine]: the IC50 in test [1] came out at 59 nM; in test [2] it was 24 nM.

For the compound `C[C@@H]1CN(c2nccc(Nc3cc(-c4ccc(C(C)(F)F)cc4)n[nH]3)n2)C[C@H](C)O1` [Compound 200, N-(3-(4-(1,1-difluoroethyl)phenyl)-1H-pyrazol-5-yl)-2-((2R,6S)-2,6-dimethylmorpholino)pyrimidin-4-amine], the results for the IC50 in test [1] and in test [2] were 386 nM and 143 nM, respectively.

Regarding `CC1COCC(C)N1c1nccc(Nc2cc(-c3ccc(OC(F)F)cc3)n[nH]2)n1` (centres unmarked) [Compound 227, N-(3-(4-(difluoromethoxy)phenyl)-1H-pyrazol-5-yl)-2-(3,5-dimethylmorpholino)pyrimidin-4-amine], the results for the IC50 in test [1] and in test [2] were 2260 nM and 1430 nM, respectively.

Consider `COc1ccc(-c2n[nH]c(Nc3ccnc(N4CCOCC4)n3)c2C)cc1` [Compound 181, N-(3-(4-methoxyphenyl)-4-methyl-1H-pyrazol-5-yl)-2-morpholinopyrimidin-4-amine], for which the IC50 came out at 4480 nM in test [1] and 2630 nM in test [2].

On to `C[C@@H]1CN(c2ncc(F)c(Nc3cc(-c4ccc(OC(F)F)cc4)n[nH]3)n2)C[C@@H](C)O1` [Compound 292, N-(3-(4-(difluoromethoxy)phenyl)-1H-pyrazol-5-yl)-2-((2R,6R)-2,6-dimethylmorpholino)-5-fluoropyrimidin-4-amine], for which the IC50 in test [1] came out at 996 nM; in test [2], 659 nM.

Regarding `C[C@H]1CN(c2nccc(Nc3cc(-c4ccc(OC(F)F)cc4)n[nH]3)n2)C[C@H](C)O1` [Compound 241, N-(3-(4-(difluoromethoxy)phenyl)-1H-pyrazol-5-yl)-2-((25,6S)-2,6-dimethylmorpholino)pyrimidin-4-amine], the IC50 in test [1] is 1810 nM; in test [2] it was 46 nM.
